C#C[C@]1(O)C=C[C@H]2[C@@H]3CCC4=CC(=O)CC[C@@H]4[C@H]3CC[C@@]21CC
solubility (mole fraction)
Details	283.15 K	288.15 K	293.15 K	298.15 K	303.15 K	308.15 K	313.15 K	318.15 K	323.15 K
in 2-butanone	0.00956	0.0114	0.0134	0.0159	0.0188	0.0221	0.0258	0.0302	0.0352
in acetone	0.00379	0.00499	0.00654	0.00862	0.0113	0.0147	0.0189	0.024	0.0302
in acetonitrile	0.00262	0.00306	0.00358	0.00418	0.00487	0.00566	0.00655	0.00754	0.00868
in ethanol	0.00314	0.00387	0.00473	0.00577	0.00701	0.0085	0.0102	0.0123	0.0147
in ethyl acetate	0.0146	0.0161	0.018	0.0194	0.0211	0.0228	0.0247	0.0264	0.0282
in isopropanol	0.00155	0.00199	0.0026	0.00328	0.00413	0.00519	0.00648	0.00809	0.0101
in isopropyl acetate	0.0174	0.0213	0.0259	0.031	0.0371	0.044	0.052	0.061	0.0711
in methanol	0.00457	0.0055	0.00655	0.00777	0.00917	0.0108	0.0125	0.0145	0.0168
in n-butanol	0.00395	0.00465	0.00549	0.00642	0.0075	0.00875	0.0102	0.0118	0.0136
in n-propanol	0.00376	0.00461	0.0056	0.00678	0.00817	0.00979	0.0117	0.014	0.0166
in water	6.83e-06	7.69e-06	8.93e-06	1.06e-05	1.23e-05	1.42e-05	1.62e-05	1.87e-05	2.16e-05
